Key:
Kv10.1 [1] = target: T1, Kv10.1 (Homo sapiens, UniProt O95259); test: FLIPR membrane potential fluorescence assay in HEK-Kv10.[…] cells, single concentration ([…]); assay type: cell-based; settings: read-out: % decrease in response amplitude at 100 μM
T1 construct: gene KCNH1
T1 sequence (O95259 1-989): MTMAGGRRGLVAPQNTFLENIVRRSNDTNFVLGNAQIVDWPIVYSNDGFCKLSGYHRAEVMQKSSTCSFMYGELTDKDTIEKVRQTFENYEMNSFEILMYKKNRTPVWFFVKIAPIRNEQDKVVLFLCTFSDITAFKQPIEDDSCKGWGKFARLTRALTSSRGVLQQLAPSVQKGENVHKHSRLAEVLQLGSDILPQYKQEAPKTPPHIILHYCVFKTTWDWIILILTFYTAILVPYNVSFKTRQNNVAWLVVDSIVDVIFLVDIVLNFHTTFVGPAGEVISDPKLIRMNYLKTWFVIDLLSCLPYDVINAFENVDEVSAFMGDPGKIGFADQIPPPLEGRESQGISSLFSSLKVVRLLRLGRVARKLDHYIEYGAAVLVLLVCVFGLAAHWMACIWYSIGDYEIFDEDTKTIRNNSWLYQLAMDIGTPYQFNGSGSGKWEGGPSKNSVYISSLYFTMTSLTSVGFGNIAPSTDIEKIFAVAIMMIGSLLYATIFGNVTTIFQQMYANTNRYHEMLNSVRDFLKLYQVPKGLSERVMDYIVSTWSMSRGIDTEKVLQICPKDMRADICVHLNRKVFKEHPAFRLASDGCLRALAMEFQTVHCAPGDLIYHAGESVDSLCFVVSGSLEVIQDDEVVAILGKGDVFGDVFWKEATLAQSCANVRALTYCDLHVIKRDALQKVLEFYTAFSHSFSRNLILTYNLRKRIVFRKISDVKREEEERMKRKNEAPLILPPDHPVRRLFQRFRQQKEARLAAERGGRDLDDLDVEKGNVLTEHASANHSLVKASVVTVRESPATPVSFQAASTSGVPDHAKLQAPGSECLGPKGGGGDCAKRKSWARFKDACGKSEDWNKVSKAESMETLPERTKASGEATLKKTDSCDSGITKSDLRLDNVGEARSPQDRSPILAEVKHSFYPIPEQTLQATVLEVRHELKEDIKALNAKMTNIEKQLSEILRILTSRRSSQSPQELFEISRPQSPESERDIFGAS

Kv10.1 [2] = target: T1, Kv10.1; test: whole-cell patch-clamp, HEK293 cells stably expressing human Kv10.[…]; assay type: cell-based

IC50 (Kv10.1 [2]) [nM]	Compound	inhibition at 100 µM (Kv10.1 [1]) [%]
	CN(C)C(=O)C(CCN1CCC(O)(c2ccc(Cl)cc2)CC1)(c1ccccc1)c1ccccc1 [LP, loperamide]	46.1
2700 ± 300	OC1(c2ccc(Cl)c(C(F)(F)F)c2)CCN(CCCC(c2ccc(F)cc2)c2ccc(F)cc2)CC1 [PNFL, penfluridol]	

Reference: PMC12440886, “Inhibition of the oncogenic channel Kv10.1 by the antipsychotic drug penfluridol” (Frontiers in Pharmacology, 2025)
